Experimental data from US20150297619A1, “METHODS AND COMPOSITIONS FOR PRESERVING THE MUCOSAL BARRIER” (priority 2014, published 2015).

How the values were obtained:
[1] = test system: mucin 13, occludin, and E-cadherin; assay: Immunoblots of epithelial barrier proteins in post-ischemic intestinal homogenates (segment 7); design: species or system rat; conditions: ileum segment 7, two hour ex vivo ischemia
Experimental: Immunoblotting—To determine whether selected epithelial barrier proteins were degraded during ischemia, pre- and post-ischemic intestinal tissue homogenates (segment 7) were analyzed for relative levels of mucin 13, occludin, and E-cadherin.
Tissues were homogenized for immunoblot analysis in buffer (CelLytic, Sigma-Aldrich) with protease inhibitor cocktail (HALT, Thermo Scientific, 1:100 dilution) and centrifuged (1×10^4 g, 20 min). Protein concentration in supernatants was determined (BCA, ThermoScientific). To separate proteins by gel electrophoresis, 30 μg of protein/well were loaded in 8 or 12% resolving gels with 4% stacking gels and transferred to nitrocellulose membranes (Bio-Rad, Hercules, Calif.). Membranes were blocked for one hour with either 5% bovine serum albumin (BSA) or 5% nonfat milk in tris-buffered saline with 0.5% Tween-20 (TBS-T). Primary antibodies diluted in 1% BSA or 1% nonfat milk against mucin 13 (1:1000, extracellular domain, sc-66973 Santa Cruz Biotechnology, Santa Cruz, Calif.), E-cadherin (1:1000, intracellular domain, 33-4000, Invitrogen), occludin (1:1000, intracellular domain, 33-1500, Invitrogen), pancreatic trypsin (1:1000, sc-137077 Santa Cruz Biotechnology), or β-actin (1:1000, sc-130301, Santa Cruz Biotechnology) were incubated overnight at 4° C. After incubation, membranes were washed with TBS-T (3×, 10 min) before addition of goat anti-rabbit or rabbit anti-mouse secondary antibodies (Santa Cruz Biotechnology) diluted 1:1000 in TBS-T. Following secondary antibody incubation (60 min), the membranes were washed with TBS-T (3×) and developed.

[2] = test system: MMP-9 dimers, pro-MMP-2, MMP-2, MMP-1 or MMP-3; assay: Gelatin gel zymography of pre-ischemic intestinal homogenates renatured with inhibitor: MMP bands; assay type: biochemical, rat; conditions: inhibitor in renaturing and developing buffer: tranexamic acid 20 mM, doxycycline 1 mg/ml, GM-6001 1 ug/ml
Experimental: Gelatin Gel Zymography—Segments 2 and 7 from pre-ischemic intestines were homogenized (0.1 g tissue/ml homogenization buffer; PBS pH 7.4 with 0.5% hexadecyltrimethyl bromide) and centrifuged at 1.4×10^4 g for 20 minutes. Supernatants were stored at −80° C. until samples were processed. To assess the proteolytic activities of individual proteases in intestinal tissue samples, sample volumes of 1 μl (with 2 μg of protein) were separated by gel electrophoresis in SDS-PAGE gels containing 80 μg/ml gelatin. […] The molecular weights of the proteases were estimated by use of a standard protein ladder (Invitrogen). Gels were digitized and bands were analyzed by densitometry in ImageJ (rsbweb.nih.gov/ij/). […] These gels were compared to a concurrently run gel processed normally.

20 kDa serine proteases = assay: Gelatin gel zymography of pre-ischemic intestinal homogenates renatured with inhibitor: serine protease bands; assay type: biochemical, rat; conditions: inhibitor in renaturing and developing buffer: tranexamic acid 20 mM, doxycycline 1 mg/ml, GM-6001 1 ug/ml
Experimental: Gelatin Gel Zymography—Segments 2 and 7 from pre-ischemic intestines were homogenized (0.1 g tissue/ml homogenization buffer; PBS pH 7.4 with 0.5% hexadecyltrimethyl bromide) and centrifuged at 1.4×10^4 g for 20 minutes. Supernatants were stored at −80° C. until samples were processed.
To assess the proteolytic activities of individual proteases in intestinal tissue samples, sample volumes of 1 μl (with 2 μg of protein) were separated by gel electrophoresis in SDS-PAGE gels containing 80 μg/ml gelatin. […] The molecular weights of the proteases were estimated by use of a standard protein ladder (Invitrogen). Gels were digitized and bands were analyzed by densitometry in ImageJ (rsbweb.nih.gov/ij/).
These gels were compared to a concurrently run gel processed normally.

intestinal villi cells = assay: TUNEL labeling of ischemic intestine (apoptosis); design: species or system rat; conditions: after 2 hrs ex vivo ischemia
Text: To assess the level of apoptosis after ischemia, in situ terminal transferase dUTP nick end labeling (TUNEL) labeling was completed using a kit (Trevigen, Gaithersburg, Md.) according to manufacturer's instructions. Sections were counterstained with 0.05% toluidine blue in 1% boric acid to contrast 3,3′-diaminobenzidine (DAB) positive nuclei (brown) from negatively stained nuclei (blue). Prior to mounting, all slides were dehydrated (70, 95, 100% ethanol) and cleaned with xylene. After air-drying overnight, sections were mounted using Hard Set Mounting Media (Vector Laboratories, Burlingame, Calif.). Digital images were captured with a 20× objective (numerical aperture 0.5) and digitally montaged together after background subtraction.

| Compound | mucin 13 levels (immunoblot) [1] | occludin levels (immunoblot) [1] | MMP gelatinase activity bands (220 kDa MMP-9 dimers, pro-MMP-2, MMP-2, 50 kDa band) [2] | 20 kDa serine protease activity bands (20 kDa serine proteases) | apoptosis (TUNEL labeling) (intestinal villi cells) | E-cadherin levels (immunoblot) [1] |
| --- | --- | --- | --- | --- | --- | --- |
| NC[C@H]1CC[C@H](C(=O)O)CC1 [tranexamic acid] | able to preserve mucin 13 levels | prevented a significant decrease in occludin | significantly reduce | no significant effect | – | – |
| O=C[C@H](O)[C@@H](O)[C@H](O)[C@H](O)CO [Glucose, glucose] | preserved | preserved | – | – | little apoptosis in the villi | decreased irrespective of the presence of glucose |
